We go through two molecules from paper PMC8145110, “Design, Synthesis, and Antibacterial Screening of Some Novel Heteroaryl-Based Ciprofloxacin Derivatives as DNA Gyrase and Topoisomerase IV Inhibitors” (Pharmaceuticals, 2021).

In brackets after ≈: the same amount, converted by molar mass.

Series [1] relates to Candida albicans (ATCC 7102). The series can be described thus: Kirby-Bauer disc diffusion, C. albicans. As to conditions: % of fluconazole. Format: cell-based. The procedure: Furthermore, using fluconazole as a reference drug, 1–21 were tested in vitro for antifungal activity against A. flavus and C. albicans (Table 1).
The cultures used were collected from the Cairo University’s Microanalytical Centre, Faculty of Science. An updated Kirby-Bauer disc diffusion method was applied for antimicrobial activities of the tests 1–21 compounds [32, 33, 34, 35]. See Appendix A.
The cultures used were collected from the Cairo University’s Microanalytical Centre, Faculty of Science. An updated Kirby-Bauer disc diffusion method was applied for the antimicrobial activities of the tests for compounds 1–21 [28]. […] Plates inoculated with filamentous fungi as Aspergillus flavus were incubated at 25 °C for 48 h; Gram positive bacteria as Staphylococcus aureus (ATCC 12600, Microanalytical center, Cairo, Egypt), Bacillus subtilis (ATCC 6051); Gram negative bacteria as Escherichia coli (ATCC 11775), Pseudomonas aeuroginosa (ATCC 10145) were incubated at 35–37 °C for 24–48 h and yeast as Candida albicans (ATCC 7102) was incubated at 30 °C for 24–48 h and, then the diameters of the inhibition zones were measured in millimeters. […] For the disc diffusion, the zone diameters were measured with slipping calipers of the National Committee for Clinical Laboratory Standards, and the results are given in Table 1. […]

Series [2] relates to B. subtilis. The experiment in a line: MIC, two-fold serial dilution, B. subtilis. The class given is cell-based. Conditions: Bacillus subtilis; read-out: Minimum Inhibitory Concentration (MIC), B. subtilis. The procedure:
(§1) Table 2, using the reference drug ciprofloxacin, was presented with the MICs (minimal inhibitory concentrations) of these compounds against tested bacteria. […] The nature of aromatic substitution in the oxadiazole moiety tends to be correlated with higher antibacterial effects and the activity increased with (Ar) in the order of 2-pyridyl ≥ 3-pyridyl > 4-pyridyl > 2-Cl-Ph > 2-naphthyl.
(§2) On 96-well microtiter plates and […] of fresh bacterial culture of a single McFarland unit overnight, a double serial dilution of each compound […] in sterile standard saline was prepared for every single source well. Ciprofloxacin antibiotic (5 mg/mL^−1) and normal saline were included as standard references in each assay (see Appendix A).
(§3) In 96-well microtiter plates and […] of fresh bacterial culture of a single McFarland unit overnight, a double serial dilution of each compound […] in sterile standard saline was prepared for every single source well. Ciprofloxacin antibiotic (5 mg/mL^−1) and normal saline were included as standard reference in each assay. The plates were incubated at 37 °C overnight. As an indicator of bacterial growth, […] of p-iodonitrotetrazolium violet (INT) was added to each well and incubated at 37 °C for 30 min. […] The colorless tetrazolidium salt acts as an electron accepter and is reduced to a red colored formazan product by biological activity organisms. Where bacterial growth was inhibited, the solution in the well remained clear after incubation with INT.

Series [3] relates to S. aureus. The series can be described thus: MIC, two-fold serial dilution, S. aureus. Conditions: Staphylococcus aureus; read-out: Minimum Inhibitory Concentration (MIC), S. aureus. The class given is cell-based, Staphylococcus aureus. The procedure: as §1, §2, §3
For series [4], the system named is E. coli. The experiment in a line: MIC, two-fold serial dilution, E. coli. Conditions: Escherichia coli; read-out: Minimum Inhibitory Concentration (MIC), E. coli. Format: cell-based. The procedure:
as §1, §2, §3

Series [5] concerns P. aeruginosa. The series can be described thus: MIC, two-fold serial dilution, P. aeruginosa. As to conditions: Pseudomonas aeruginosa; read-out: Minimum Inhibitory Concentration (MIC), P. aeruginosa. Format: cell-based. As to the method: as §1, §2, §3
For series [6], the target named is T1, E. coli DNA gyrase (Escherichia coli, UniProt P0AES4+P0AES6).
T1 construct: purchased Inspiralis
T1 sequence (P0AES4 whole entry, one chain of several): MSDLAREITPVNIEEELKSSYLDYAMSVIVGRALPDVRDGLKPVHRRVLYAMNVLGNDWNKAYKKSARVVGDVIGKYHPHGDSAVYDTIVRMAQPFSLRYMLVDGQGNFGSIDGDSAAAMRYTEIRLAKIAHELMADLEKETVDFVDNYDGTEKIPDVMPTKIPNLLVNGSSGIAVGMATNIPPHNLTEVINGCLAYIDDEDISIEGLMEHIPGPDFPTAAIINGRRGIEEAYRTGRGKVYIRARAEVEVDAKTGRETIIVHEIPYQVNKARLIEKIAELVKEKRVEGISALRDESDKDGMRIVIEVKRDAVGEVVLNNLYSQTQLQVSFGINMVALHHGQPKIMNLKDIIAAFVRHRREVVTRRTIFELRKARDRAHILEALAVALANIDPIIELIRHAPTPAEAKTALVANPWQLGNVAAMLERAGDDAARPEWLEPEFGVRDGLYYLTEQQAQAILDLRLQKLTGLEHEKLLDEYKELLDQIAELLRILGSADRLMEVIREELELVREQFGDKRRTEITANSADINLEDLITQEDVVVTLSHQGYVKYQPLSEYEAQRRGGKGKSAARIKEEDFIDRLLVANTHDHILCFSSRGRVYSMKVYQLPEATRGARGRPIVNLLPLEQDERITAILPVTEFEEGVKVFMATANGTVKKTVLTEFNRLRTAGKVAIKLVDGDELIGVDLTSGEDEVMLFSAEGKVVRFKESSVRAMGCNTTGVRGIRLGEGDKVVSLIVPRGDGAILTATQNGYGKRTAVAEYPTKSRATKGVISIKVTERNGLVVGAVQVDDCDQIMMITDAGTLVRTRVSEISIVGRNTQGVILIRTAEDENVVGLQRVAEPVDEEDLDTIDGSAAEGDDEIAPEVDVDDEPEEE
The series can be described thus: E. coli DNA gyrase assay. Format: biochemical. The procedure:
(§4) IC50 assay determination was carried out in accordance with the procedures previously stated (see Appendix A).
(§5) Inhibitory activities were determined in an assay from Inspiralis on streptavidin-coated 96-well microtiter plates from Thermo scientific Pierce. […] After washing off the unbound oligonucleotide, the enzyme test was performed. […] After that, the TF buffer (50 mM NaOAc with pH 5.0, 50 mM NaCl and 50 mM MgCl2) was added to terminate the enzymatic reaction. After additional incubation for 30 min at rt, during which biotin-oligonucleotide-plasmid triplex was 19 formed, the unbound plasmid was washed off using TF buffer and SybrGOLD in T10 buffer (10 mM Tris HCl with pH 8.0 and 1 mM EDTA) was added. […] Initial screening was done at 100 or 10 μM concentration of inhibitors. […] GraphPad Prism software was used to calculate the IC50 values. The result is given as the average value of three independent measurements. […] Determination of inhibitory activities on E. coli and S. aureus Topoisomerase IV IC50 values were determined in an assay from Inspiralis on streptavidin-coated 96-well microtiter plates from Thermo scientific Pierce. […] After washing off the unbound oligonucleotide, the enzyme test was performed. The reaction volume of 30 μL in buffer (40 mM HEPES KOH with pH 7.6, 100 mM potassium glutamate, 10 mM magnesium acetate, 10 mM DTT, 1 mM ATP, 0.05 mg/mL albumin) contained 1.5 U of topoisomerase IV from E. coli or S. aureus, 0.75 μg of pNO1 supercoiled plasmid, and 3 μL solution of the inhibitor in DMSO (10%) and Tween 20 (0.008%). […] After additional incubation for 30 min at rt, during which triplex (biotin-oligonucleotide-plasmid) was formed, the unbound plasmid was washed off using TF buffer and SybrGOLD in T10 buffer (10 mM Tris HCl with pH 8.0 and 1 mM EDTA) was added. […] Initial screening was done at 100 or 10 μM concentration of inhibitors. […] GraphPad Prism software was used to calculate the IC50 values. The result is given as the average value of three independent measurements.

The target in series [7] is T2, E. coli topoisomerase IV (Escherichia coli, UniProt P0AFI2+P20083).
T2 construct: purchased Inspiralis
T2 sequence (P0AFI2 whole entry): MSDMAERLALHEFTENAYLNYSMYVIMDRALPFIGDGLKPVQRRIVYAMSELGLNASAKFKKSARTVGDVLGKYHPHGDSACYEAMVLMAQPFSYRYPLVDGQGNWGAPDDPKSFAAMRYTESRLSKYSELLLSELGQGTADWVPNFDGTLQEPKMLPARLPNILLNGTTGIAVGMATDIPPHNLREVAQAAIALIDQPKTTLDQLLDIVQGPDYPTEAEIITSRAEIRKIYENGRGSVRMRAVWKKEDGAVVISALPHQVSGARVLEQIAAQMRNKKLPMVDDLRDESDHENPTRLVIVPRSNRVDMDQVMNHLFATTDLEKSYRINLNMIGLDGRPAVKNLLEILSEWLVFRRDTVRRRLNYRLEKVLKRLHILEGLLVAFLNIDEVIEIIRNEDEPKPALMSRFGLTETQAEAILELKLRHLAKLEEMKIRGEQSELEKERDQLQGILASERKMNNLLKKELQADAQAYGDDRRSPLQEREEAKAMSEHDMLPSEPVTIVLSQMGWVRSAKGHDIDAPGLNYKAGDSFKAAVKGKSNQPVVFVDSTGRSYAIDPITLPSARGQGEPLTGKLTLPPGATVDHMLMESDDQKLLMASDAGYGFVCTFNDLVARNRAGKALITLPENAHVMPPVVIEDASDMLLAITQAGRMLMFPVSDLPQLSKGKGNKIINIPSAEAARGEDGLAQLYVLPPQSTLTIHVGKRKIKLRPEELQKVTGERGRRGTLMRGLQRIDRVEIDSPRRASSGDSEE
T2 sequence (P20083 whole entry): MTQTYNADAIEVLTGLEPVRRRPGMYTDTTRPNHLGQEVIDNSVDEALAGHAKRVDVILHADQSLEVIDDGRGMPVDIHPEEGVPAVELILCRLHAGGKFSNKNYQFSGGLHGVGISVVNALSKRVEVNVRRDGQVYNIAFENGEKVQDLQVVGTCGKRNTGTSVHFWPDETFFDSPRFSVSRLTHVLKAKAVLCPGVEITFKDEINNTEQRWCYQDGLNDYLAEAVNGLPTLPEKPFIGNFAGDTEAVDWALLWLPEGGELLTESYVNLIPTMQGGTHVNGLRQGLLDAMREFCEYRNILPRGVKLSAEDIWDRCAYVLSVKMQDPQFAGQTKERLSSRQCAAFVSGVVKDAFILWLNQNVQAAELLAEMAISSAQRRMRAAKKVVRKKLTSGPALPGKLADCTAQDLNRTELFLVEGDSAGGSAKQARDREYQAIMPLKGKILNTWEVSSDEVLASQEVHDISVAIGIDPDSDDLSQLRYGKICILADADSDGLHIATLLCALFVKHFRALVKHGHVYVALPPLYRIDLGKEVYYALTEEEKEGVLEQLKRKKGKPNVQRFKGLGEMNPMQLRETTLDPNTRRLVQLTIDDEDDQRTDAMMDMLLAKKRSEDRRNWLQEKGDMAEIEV
The experiment in a line: E. coli topoisomerase IV assay. Conditions: read-out: RA (%), residual activity of E. coli Topo IV. Format: biochemical. As to the method: as §4, §5

Series [8] in a line: Cell viability assay (MTT). Format: cell-based. Details: dose or concentration left out as unconfirmed. As to conditions: human, MCF-10A mammary gland epithelial cells, four days. The procedure: A human mammary gland epithelial cell line (MCF-10A) was used to conduct a cell viability assay. Compounds 2–6 were incubated with MCF-10A cells for four days, and the viability of the cells was determined using the 3-(4,5-dimethylthiazol-2-yl)-2,5-diphenyltetrazolium bromide (MTT) assay. All compounds had no cytotoxic effects, and the viability of the cells was greater than 85% for most of the compounds examined […], as shown in Table 4.
MTT Assay was performed to investigate the effect of compounds 2–6 on the viability of mammary epithelial cells (MCF-10A) (see Appendix A).

The test system of series [9] is most of the pathogens tested. On the set-up: method as in doi:10.1002/jhet.2760. Conditions: cited from earlier work.

`O=C(O)c1cn(C2CC2)c2cc(N3CCN(Cn4nc(-c5ccc6ccccc6c5)oc4=S)CC3)c(F)cc2c1=O` [Compound 3, 1-Cyclopropyl-6-fluoro-7-[4-(5-naphthalen-2-yl-2-thioxo-[1,3,4]oxadiazol-3-ylmethyl)-piperazin-1-yl]-4-oxo-1,4-dihydro-quinoline-3-carboxylic acid] showed a melting point of 244 °C. Moreover, in [1], the “antifungal activity against C. albicans relative to fluconazole” value is reported as 33%. The MIC in series [2] amounted to 0.125 µg/mL (≈ 0.219 µM). For the same molecule, the MIC in [3] was 0.125 µg/mL (≈ 0.219 µM). In addition, in series [4], the MIC came out at 0.125 µg/mL (≈ 0.219 µM). Also, the MIC in series [5] stood at 0.05 µg/mL (≈ 0.0875 µM). This molecule had an IC50 in [6] of 86 ± 9 nM. The remaining activity at 1 µM in series [7] turned out to be 58%. The same molecule registered a viability at 4 days in [8] of 85%.

In the case of `O=C(O)c1cn(C2CC2)c2cc(N3CCN(Cn4nc(CN5CCSCC5)oc4=S)CC3)c(F)cc2c1=O` [I], in series [9], the “times more potent than ampicillin” value is > 41 times.
